According to US20080311048A1, “Imaging Agent” (ISIS INNOVATION LTD., priority 2005, published 2008):

System: left hemisphere of rat brains injected with Interleukin-1β (selectin expression)
Assay: MRI scans of rat brains after interleukin-1β injection into the left hemisphere
Conditions: in vivo
Experimental: The magnetic particles of the present invention can be used in a number of different methods. In particular, sugars conjugated to ultra small super paramagnetic iron oxide provide more sensitive detection of cerebroendothelial cell activation than know contrast agents such as Gd-DTPA-B(sLEex)A. In particular conjugated magnetic particles in accordance with the present invention were used in MRI scans. Interleukin-1β was injected into the left hemisphere of rat brains. Interleukin beta was used to induce an inflammatory response in the left hemispheres. All samples were subjected to MRI scans. Controls were carried out using Gd alone, or superparamagnetic particles alone. Two different conjugates, one of which having a disaccharide and one of which having Sialyl Lewis X, both in accordance with the present invention were tested. […] The control with Gd (shown in FIG. 2) confirmed that there was no breakdown of the blood brain barrier. […] Thus, the conjugates of the present invention allowed imaging of the areas of the brain that had been injected with interleukin-1β, and which would be expected to show greater levels of selectin expression.

Sialyl Lewis X
MRI scan: asymmetry between left and right cranial hemispheres: asymmetry, being darker in the left hemisphere than the right
